Measured values taken from patent publication US20050143430A1, “Catechol bioisosteres” (priority 2002, published 2005).
pIC50: −log10 of the molar value.

Target: Insulin-like Growth Factor 1 Receptor (IGF-1R) (Homo sapiens, UniProt P08069)
Test: IGF-1R inhibition in vitro
Assay type: biochemical

Chain of Insulin-like Growth Factor 1 Receptor (IGF-1R) (P08069 31-1367, species assumed): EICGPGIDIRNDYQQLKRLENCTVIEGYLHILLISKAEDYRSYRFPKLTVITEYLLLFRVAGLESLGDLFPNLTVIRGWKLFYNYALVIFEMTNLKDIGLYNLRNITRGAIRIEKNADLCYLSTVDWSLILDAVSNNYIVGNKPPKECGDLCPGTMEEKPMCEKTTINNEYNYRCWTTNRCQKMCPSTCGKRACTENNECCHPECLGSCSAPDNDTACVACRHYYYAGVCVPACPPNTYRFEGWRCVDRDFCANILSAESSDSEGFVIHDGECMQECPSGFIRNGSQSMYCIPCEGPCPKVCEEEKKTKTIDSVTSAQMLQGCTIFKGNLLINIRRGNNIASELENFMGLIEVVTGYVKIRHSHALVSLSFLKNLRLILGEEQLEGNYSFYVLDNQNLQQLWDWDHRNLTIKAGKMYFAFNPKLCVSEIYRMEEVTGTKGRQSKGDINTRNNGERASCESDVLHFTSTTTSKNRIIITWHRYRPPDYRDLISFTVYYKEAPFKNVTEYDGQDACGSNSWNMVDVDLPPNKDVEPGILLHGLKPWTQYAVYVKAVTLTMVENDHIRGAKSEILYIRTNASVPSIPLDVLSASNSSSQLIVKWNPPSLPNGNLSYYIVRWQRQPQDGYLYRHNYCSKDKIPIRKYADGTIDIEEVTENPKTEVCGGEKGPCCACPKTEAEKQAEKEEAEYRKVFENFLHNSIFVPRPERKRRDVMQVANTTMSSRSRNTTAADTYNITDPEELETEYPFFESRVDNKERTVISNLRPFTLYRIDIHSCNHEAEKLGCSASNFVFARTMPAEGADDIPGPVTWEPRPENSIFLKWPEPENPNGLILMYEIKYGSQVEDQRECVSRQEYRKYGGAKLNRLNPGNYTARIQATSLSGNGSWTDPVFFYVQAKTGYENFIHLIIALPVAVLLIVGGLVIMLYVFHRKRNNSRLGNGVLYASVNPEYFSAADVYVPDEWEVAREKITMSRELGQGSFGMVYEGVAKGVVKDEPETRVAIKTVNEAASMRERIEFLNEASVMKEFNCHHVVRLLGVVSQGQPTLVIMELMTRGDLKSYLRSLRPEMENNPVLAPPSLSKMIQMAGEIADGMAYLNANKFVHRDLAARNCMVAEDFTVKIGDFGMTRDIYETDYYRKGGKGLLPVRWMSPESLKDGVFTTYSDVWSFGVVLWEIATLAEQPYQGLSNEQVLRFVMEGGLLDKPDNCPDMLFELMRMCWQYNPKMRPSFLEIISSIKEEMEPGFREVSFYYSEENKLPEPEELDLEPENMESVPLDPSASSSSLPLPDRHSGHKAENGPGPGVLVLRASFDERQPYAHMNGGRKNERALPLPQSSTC

pIC50	SMILES
5.38	N#C/C(=C\c1ccc2[nH]c(=O)oc2c1)C(=O)c1ccc2[nH]c(=O)oc2c1 [GB18]
6.70	N#CC(=Cc1ccc(O)c(O)c1)C(=O)c1ccc2[nH]c(=O)oc2c1 (single isomer, unassigned) [GB16-11]
4.92	N#C/C(=C\c1ccc2oc(=O)[nH]c2c1)C(=O)c1ccc2[nH]c(=O)oc2c1 [GB 17]
5.92	N#CC(=Cc1ccc(O)c(O)c1)C(=O)c1ccc2[nH]c(=O)oc2c1 (single isomer, unassigned) [GB 16-10]
7.15	N#C/C(=C\c1ccc2oc(=O)[nH]c2c1)C(=O)c1ccc(O)c(O)c1 [AGL 2263]
7.22	N#C/C(=C\c1ccc(O)c(O)c1)C(=O)c1ccc(O)c(O)c1 [AG 538, reference compound]
